Data on 17 compounds can be found in patent US20090012087A1, “New Aza-Bicyclohexane Compounds Useful As Inhibitors Of Thrombin” (ASTRAZENECA AB, priority 2007, published 2009).

Structures can show the parent of a compound that is named as a salt.

In this experiment the target is T1, Human α-thrombin (Homo sapiens, UniProt P00734).
T1 construct: Human α-thrombin; purchased Sigma Chemical Co. or Hematologic Technologies
Description: Test A: Determination of Thrombin Inhibition with a Chromogenic, Robotic Assay. The format is biochemical. The following applies: chromogenic substrate S-2366 0.30 mmol/L, α-thrombin 0.020 NIHU/mL, 40 minutes incubation at 37° C. The protocol: Determination of Thrombin Inhibition with a Chromogenic, Robotic Assay
The thrombin inhibitor potency is measured with a chromogenic substrate method, in a Plato 3300 robotic microplate processor (Rosys AG, CH-8634 Hombrechtikon, Switzerland), using 96-well, half volume microtitre plates (Costar, Cambridge, Mass., USA; Cat No 3690). Stock solutions of test substance in DMSO (72 μL), 0.1-1 mmol/L, are diluted serially 1:3 (24+48 μL) with DMSO to obtain ten different concentrations, which are analysed as samples in the assay. 2 μL of test sample is diluted with 124 μL assay buffer, 12 μL of chromogenic substrate solution (S-2366, Chromogenix, Mölndal, Sweden) in assay buffer and finally 12 μL of α-thrombin solution (Human α-thrombin, Sigma Chemical Co. or Hematologic Technologies) in assay buffer, are added, and the samples mixed. The final assay concentrations are: test substance 0.00068-133 μmol/L, S-2366 0.30 mmol/L, α-thrombin 0.020 NIHU/mL. The linear absorbance increment during 40 minutes incubation at 37° C. is used for calculation of percentage inhibition for the test samples, as compared to blanks without inhibitor.
As to “(1S,3S,5S)-2-(4-Hydroxy-1-benzopyran-4-carbonyl)-2-aza-bicyclo[3.1.0]hexane-3-carboxylic acid 5-chloro-2-tetrazol-1-yl-benzylamide [Example 63]”, the IC50 (in general, the midpoint of a concentration-inhibition curve) was 41 nM.

In turn, `N[C@@H](C(=O)N1[C@H](C(=O)NCc2cc(Cl)ccc2-n2cnnn2)C[C@@H]2C[C@@H]21)c1ccccc1` [Example 43, (1S,3S,5S)-2-((R)-2-Amino-2-phenyl-acetyl)-2-aza-bicyclo[3.1.0]hexane-3-carboxylic acid 5-chloro-2-tetrazol-1-yl-benzylamide] displayed a half-inhibitory concentration (IC50) of 5 nM.

Compound `NC(C(=O)N1[C@H](C(=O)NCc2cc(Cl)ccc2-n2cnnn2)C[C@@H]2C[C@@H]21)C1CCS(=O)(=O)CC1` (stereo partly drawn) [Example 72, (1S,3S,5S)-2-[2-Amino-2-(1,1-dioxo-hexahydro-1λ^6-thiopyran-4-yl)-acetyl]-2-aza-bicyclo[3.1.0]hexane-3-carboxylic acid 5-chloro-2-tetrazol-1-yl-benzylamide] showed a half-inhibitory concentration (IC50) of 240 nM.

As to `O=C([C@H](O)C1CCCCC1)N1CC2CC1(C(=O)NCc1cc(Cl)ccc1-n1cnnn1)C2` [Example 67, 2-((R)-2-Cyclohexyl-2-hydroxy-acetyl)-2-aza-bicyclo[2.1.1]hexane-1-carboxylic acid 5-chloro-2-tetrazol-1-yl-benzylamide], half-maximal inhibition (IC50) required 85 nM.

`NC(C(=O)N1[C@H](C(=O)NCc2cc(Cl)ccc2-n2cnnn2)C[C@@H]2C[C@@H]21)c1ccccc1F` (stereo partly drawn) [Example 73, (1S,3S,5S)-2-[2-Amino-2-(2-fluoro-phenyl)-acetyl]-2-aza-bicyclo[3.1.0]hexane-3-carboxylic acid 5-chloro-2-tetrazol-1-yl-benzylamide] registered a half-inhibitory concentration (IC50) of 8 nM.

The compound `N[C@@H](C(=O)N1[C@H](C(=O)NCc2cc(Cl)ccc2-n2cnnn2)C[C@@H]2C[C@@H]21)c1cccc(Cl)c1` [Example 71, (1S,3S,5S)-2-[(R)-2-Amino-2-(3-chloro-phenyl)-acetyl]-2-aza-bicyclo[3.1.0]hexane-3-carboxylic acid 5-chloro-2-tetrazol-1-yl-benzylamide] showed an IC50 of 5 nM.

Turning to `O=C(NCc1cc(Cl)ccc1-n1cncn1)[C@@H]1C[C@@H]2C[C@@H]2N1C(=O)C(O)Cn1cncn1` (stereo partly drawn) [Example 69, (1S,3S,5S)-2-(2-Hydroxy-3-1,2,4-triazol-1-yl-propionyl)-2-aza-bicyclo[3.1.0]hexane-3-carboxylic acid 5-chloro-2-1,2,4-triazol-1-yl-benzylamide], the IC50 turned out to be 780 nM.

For `O=C(NCc1cc(Cl)ccc1-n1cnnn1)[C@@H]1C[C@@H]2C[C@@H]2N1C(=O)C(O)Cn1cncn1` (some centres unmarked) [Example 51], half-maximal inhibition (IC50) was put at 420 nM.

Take `CC(C)(C1CC1)C(O)C(=O)N1[C@H](C(=O)NCc2cc(Cl)ccc2-n2cnnn2)C[C@@H]2C[C@@H]21` (stereo partly drawn) [Example 33, (1S,3S,5S)-2-(3-Cyclopropyl-2-hydroxy-3-methyl-butyryl)-2-aza-bicyclo[3.1.0]hexane-3-carboxylic acid 5-chloro-2-tetrazol-1-yl-benzylamide]: the half-maximal inhibitory concentration (IC50) is 10 nM.

Compound `CC(C)(C)C[C@@H](O)C(=O)N1CC2CC1(C(=O)NCc1cc(Cl)ccc1-n1cnnn1)C2` [Example 28, 2-((R)-2-Hydroxy-4,4-dimethyl-pentanoyl)-2-aza-bicyclo[2.1.1]hexane-1-carboxylic acid 5-chloro-2-tetrazol-1-yl-benzylamide] returned a half-inhibitory concentration (IC50) of 6 nM.

`O=C(NCc1cc(F)ccc1-n1cnnn1)[C@@H]1C[C@@H]2C[C@@H]2N1C(=O)[C@H](O)c1cccc(Cl)c1` [Example 70, (1S,3S,5S)-2-[(R)-2-(3-Chloro-phenyl)-2-hydroxy-acetyl]-2-aza-bicyclo[3.1.0]hexane-3-carboxylic acid 5-fluoro-2-tetrazol-1-yl-benzylamide] displayed a concentration for half-maximal inhibition (IC50) of 36 nM.

Compound `O=C([C@H](O)Cc1ccccc1)N1CC2CC1(C(=O)NCc1cc(Cl)ccc1-n1cnnn1)C2` [Example 29, 2-((R)-2-Hydroxy-3-phenyl-propionyl)-2-aza-bicyclo[2.1.1]hexane-1-carboxylic acid 5-chloro-2-tetrazol-1-yl-benzylamide] displayed a concentration for half-maximal inhibition (IC50) of 290 nM.

Compound `CC(C)(C)C[C@@H](N)C(=O)N1[C@H](C(=O)NCc2cc(Cl)ccc2-n2cnnn2)C[C@@H]2C[C@@H]21` [Example 20, (1S,3S,5S)-2-((R)-2-Amino-4,4-dimethyl-pentanoyl)-2-aza-bicyclo[3.1.0]hexane-3-carboxylic acid 5-chloro-2-tetrazol-1-yl-benzylamide hydrochloride] showed an IC50 of 2 nM.

Take `CC(C)(C1CC1)C(O)C(=O)N1[C@@H]2C[C@@H]2C[C@H]1C(=O)NCc1cc(Cl)ccc1-n1cnnn1` (stereo partly drawn) [Example 60, (1R,3S,5R)-2-(3-Cyclopropyl-2-hydroxy-3-methyl-butyryl)-2-aza-bicyclo[3.1.0]hexane-3-carboxylic acid 5-chloro-2-tetrazol-1-yl-benzylamide]: the half-maximal inhibitory concentration (IC50) turned out to be 14 nM.

The compound `CC(C)(C)C[C@@H](N)C(=O)N1[C@@H]2C[C@@H]2C[C@H]1C(=O)NCc1cc(Cl)ccc1-n1cnnn1` [Example 19, (1R,3S,5R)-2-((R)-2-Amino-4,4-dimethyl-pentanoyl)-2-aza-bicyclo[3.1.0]hexane-3-carboxylic acid 5-chloro-2-tetrazol-1-yl-benzylamide hydrochloride] registered an IC50 of 4 nM.

Consider `N[C@H](CO)C(=O)N1[C@@H]2C[C@@H]2C[C@H]1C(=O)NCc1cc(Cl)ccc1-n1cnnn1` [Example 50, (1R,3S,5R)-2-((R)-2-Amino-3-hydroxy-propionyl)-2-aza-bicyclo[3.1.0]hexane-3-carboxylic acid 5-chloro-2-tetrazol-1-yl-benzylamide hydrochloride], for which 2500 nM corresponded to half-maximal inhibition (IC50).

As to `O=C(NCc1cc(Cl)ccc1-n1cnnn1)[C@@H]1C[C@@H]2C[C@@H]2N1C(=O)C1(O)CCCc2ncccc21` (stereo partly drawn) [Example 76, (1S,3S,5S)-2-(5-Hydroxy-5,6,7,8-tetrahydro-quinoline-5-carbonyl)-2-aza-bicyclo[3.1.0]hexane-3-carboxylic acid 5-chloro-2-tetrazol-1-yl-benzylamide], the concentration for half-maximal inhibition (IC50) was 11 nM.
